From US11476000B2, “Methods and systems using mathematical analysis and machine learning to diagnose disease” (Analytics For Life Inc., priority 2015, dated 2022)

Experiments:
[1] = system: test rats exposed to DMO in-utero; assay: Cardiovascular adaptation to pregnancy in rats exposed to DMO in utero; assay type: in vivo, rat; settings: in-utero exposed rats with resolved CHD; altered CO, SV, strain, elevated mean arterial pressure
Procedure: (§1) To explore the potential deleterious long-term consequences of resolved CHDs, the exemplified rat model was developed that recapitulates many of the clinical presentations of CHD. To generate such a model, pregnant rats were treated with a chemical teratogen. […] Without wishing to be bound to particular theory, it is thought that DMO teratogenicity is mediated by oxidative stress which might be the result of the result of hypoxia reperfusion injury caused by bradycardias induced by disruption of calcium and potassium ion channels in embryonic myocytes. […] The administration of four 300 mg/kg doses every twelve hours beginning on the morning of gestation day (GD) 9 produces approximately a 50% incidence of CHD if fetuses are examined on GD 21, one day prior to natural parturition (see, e.g., Weston et al., “Co-variation in frequency and severity of cardiovascular and skeletal defects in Sprague-Dawley rats after maternal administration of dimethadione, the N-demethylated metabolite of trimethadione. Birth defects research Part B,” Developmental and reproductive toxicology, Vol. 92, Pages 206-15 (2011)). […] For example, in infants, approximately 80% of VSD resolves by one year of age, and in test rats after DMO exposure, about 80% of the VSD resolve spontaneously by weaning. […]

[2] = system: outbred pregnant Sprague-Dawley rats; settings: four 300 mg/kg doses every twelve hours beginning morning of GD 9; fetuses examined on GD 21; cited from earlier work
[3] = system: outbred pregnant Sprague-Dawley rats; assay: Teratogenicity of maternal DMO administration in pregnant rats (CHD in progeny); assay type: in vivo; settings: rat pups after DMO exposure, natural delivery, echocardiography
Procedure: as §1

[4] = estimated; cited from earlier work

| SMILES | adaptation of the cardiovascular system to pregnancy [1] | incidence of CHD [2] | VSD that resolve spontaneously by weaning [3] | in utero exposures resulting in embryo/fetal loss, or malformations including a high incidence of CHD [4] |
| --- | --- | --- | --- | --- |
| CC1(C)OC(=O)NC1=O [DMO, dimethadione] | adapted poorly to the burden of pregnancy | ~50% | approximately 80% | – |
| CN1C(=O)OC(C)(C)C1=O [trimethadione] | – | – | – | 80% |
